# Laboratory results published in patent publication US20240018120A1, “MAGL INHIBITORS” (H. LUNDBECK A/S, priority 2020, published 2024).
# Assays:
# [1] = tested on: maximal electroshock seizure threshold (MEST) model; assay: Maximal electroshock seizure threshold (MEST) model in the rat; format: in vivo; conditions: 10 mg/kg p.o., 240 min pre-treatment
# Experimental: In the MEST model, a low-intensity electrical current of high frequency and short duration is applied to induce tonic convulsions.
# Animals were randomly assigned to vehicle, compound treatment or Lamotrigine dose groups. Animals were dosed at 5 mL/kg according to treatment groups (n=12 or 16/group), with either vehicle (0.5% MC) p.o. for Example 6, vehicle (10% HP-b-CD) for Example 8, test compound at 10 mg/kg p.o. 240 min pre-treatment time, or Lamotrigine p.o. 360 min pre-treatment time. Rats were individually assessed for production of a tonic hind limb extensor seizure following a single corneally delivered electroshock of 0.3 second duration, using an ‘up and down method’ of shock titration (Kimball A W et al., 1957). Thus, the first rat within a treatment group was given a shock at the expected or estimated CC50 current (current producing tonic hind limb extensor seizures in 50% of animals). […] This procedure was continued for all rats within a treatment group. Induction of seizure was measured as an all-or-nothing effect scored as either present (+) or absent (0) for each animal. […]
# Significant differences between drug-treated animals and controls were assessed according to Litchfield and Wilcoxon (1949) or One-Way ANOVA followed by Dunnett's multiple comparisons test.
# [2] = tested on: cryopreserved human hepatocytes; assay: In vitro human hepatocyte stability; format: in vitro ADME; conditions: human hepatocytes 0.5×10^6 cells/mL, 1 μM
# In short: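 Test articles at 1 μM incubated in duplicate with pooled-donor cryopreserved human hepatocytes (0.5×10^6 cells/mL), sampled from 0 to 240 min and quantified by LC-MS/MS after acetonitrile quench. In vitro t½ taken from the depletion slope (−0.693/k) and scaled to unbound CLint in mL/min/kg, mean of duplicates.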
compound,measurement,setting,value
"O=C(Nc1cccnn1)[C@H]1CC12CCN(C(=O)OC(C(F)(F)F)C(F)(F)F)CC2 [Example 6, 1,1,1,3,3,3-Hexafluoropropan-2-yl (S)-1-(pyridazin-3-ylcarbamoyl)-6-azaspiro[2.5]octane-6-carboxylate]",anticonvulsant activity in the MEST (seizure threshold CC50),[1],anticonvulsant activity
same,Scaled-up unbound CLint,[2],5.79 mL/min/kg
